Source: patent US9288993B2, “Copper resistant, fengycin-producing Bacillus mojavensis strain for controlling vegetable pathogens, its use and compositions containing it” (Szegedi Tudományegyetem, priority 2011, dated 2016)
Like-named read-outs stand apart in the source and are kept apart here.

Key:
Phytophthora infestans = settings: 100 ppm copper
plant pathogen fungi = assay: Fengycin concentration of diluted culture inhibiting plant pathogen fungi; type: cell-based; settings: culture in glutaminic acid/glucose solution diluted 10-20 times

Row | Compound | growth of Phytophthora infestans strains (Phytophthora infestans) | growth of P. syringae strains (P. syringae; 200 ppm copper) | growth of P. syringae strains (P. syringae; 400 ppm copper) | fengycin concentration which achieves a complete inhibition of the majority of the plant pathogen fungi (plant pathogen fungi) [mg/L]
1 | O=S(=O)([O-])[O-].[Cu+2] [copper, copper-sulphate] | did not show growth anymore | all increased | none of them | –
2 | fengycin | – | – | – | 10 to 12
